Experimental findings from BindingDB's records for PubMed 2989489 (Eli Lilly, 1985) are described below.

Where “and” joins values, the source holds several entries; their conditions need not be identical. Equal values may be shown once. Bounds are passed on as bounds.

For this assay, the target named is Sigma non-opioid intracellular receptor 1 (Rattus norvegicus, UniProt Q9R0C9).
Sigma non-opioid intracellular receptor 1, sequence (Q9R0C9 whole entry): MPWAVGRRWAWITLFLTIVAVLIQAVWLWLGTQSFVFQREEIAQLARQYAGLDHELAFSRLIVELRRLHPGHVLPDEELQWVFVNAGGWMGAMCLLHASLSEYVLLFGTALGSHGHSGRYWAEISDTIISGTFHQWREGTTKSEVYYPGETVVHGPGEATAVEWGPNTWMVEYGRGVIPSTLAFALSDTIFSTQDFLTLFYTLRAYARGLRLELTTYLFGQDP

For `Cc1cccc(C2(N3CCCCC3)CCCCC2)c1` [PCP,m-OH], the Ki is 8 nM and 77 nM. Molecule `CCC12CCN(CC3(O)CC3)C(Cc3ccc(O)cc31)C2(C)C` (stereo unspecified) yielded a Ki of 229 nM.

Consider `CCC1(c2ccccc2)OCC([C@H]2CCCCN2)O1` (stereo partly specified), for which the Ki was 82 nM and 152 nM. Consider `C=CCN1CC[C@]2(C)c3cc(O)ccc3C[C@@H]1[C@@H]2C` [SKF 10,047 (-)], for which the Ki was 117 nM and 134 nM and 229 nM and 571 nM.

`Oc1noc2c1CCNC2` [CAS_64603-91-4] had a Ki greater than 10000 nM.

Turning to `c1ccc(C2(c3ccccc3)OCC(C3CCCCN3)O2)cc1` (racemic), the Ki was 23 nM and 141 nM.

Consider `Oc1ccc2c(c1)C13CCCCC1C(C2)N(CC1CC1)CC3` (stereo unspecified) [17-(cyclopropylmethyl)-17-azatetracyclo[7.5.3.0^{1,10}.0^{2,7}]heptadeca-2(7),3,5-trien-4-ol], for which the Ki was 226 nM and 287 nM. With `C[C@@H]1[C@@H]2Cc3ccc(O)cc3[C@@]1(C)CCN2CC1CC1` [(SSS)-12-Cyclopropylmethyl-13-methyl-12-aza-tricyclo[9.1.1.0*3,8*]trideca-3(8),4,6-trien-6-ol(cyclazocine)] the figure was 69 nM and 125 nM; with `CN[C@@]1(c2ccccc2Cl)CCCCC1=O` [2-(2-Chloro-phenyl)-2-methylamino-cyclohexanone(Ketamine)], 440 nM and 1450 nM. With `CC1(C2(C)COC(c3ccccc3)(c3ccccc3)O2)CCCCN1` (stereo unspecified) [CAS_4792-18-1] the figure was 5500 nM and 1900 nM. As for `c1ccc(C2(N3CCCCC3)CCCCC2)cc1`, the Ki was 29 nM and 135 nM.

Usually Ki stands for a dissociation constant, usually derived from enzyme kinetics or from competition with a known ligand. Read a low Ki as tighter binding.
